≈ marks a conversion by molar mass, not a printed value.
Conditions: for aqueous solubility: pH 6.8

Row | MDR1-MDCK efflux ratio | intrinsic clearance, human liver microsomes [mL/min/kg] | intrinsic clearance, rat liver microsomes [mL/min/kg] | aqueous solubility [µg/mL] | fraction unbound, human plasma | fraction unbound, rat plasma | SMILES
1 | 0.716 | 359 | 1950 | 55.5 (≈ 154 µM) | – | – | COc1ccccc1NC(=O)CN1CCCN(c2nc(C)cs2)CC1
2 | 8.01 | 32.7 | 238 | 60.8 (≈ 165 µM) | – | – | CC(C)c1nc2c(n1C)CCN(C(=O)c1cccc(C(F)(F)F)c1F)C2
3 | 39.9 | 7.26 | 32.5 | – | 0.44 | 0.612 | Cn1cc(Nc2nccc(N3CC4CCC(C3)N4C(=O)[C@@H]3CC3(F)F)n2)cn1
4 | 0.8 | 8.33 | 710 | – | – | – | c1nc(N2CCC3(CCCCC3)C2)c2cn[nH]c2n1
5 | – | 445 | 9320 | – | – | – | CCN1C(=O)C(C)(C)COc2cc(NS(=O)(=O)c3cc(C)c(C)cc3OC)ccc21
6 | 0.773 | 10.2 | 280 | 39.6 (≈ 120 µM) | – | – | Fc1ccc(NCc2cccc(OCCN3CCOCC3)c2)nc1
7 | 0.947 | 182 | 2380 | 37.3 (≈ 119 µM) | – | – | CCCN(C(=O)c1c(CC)noc1C)C1Cc2ccccc2C1
8 | 8.64 | 103 | 378 | 21.2 (≈ 47.3 µM) | – | – | CO[C@H]1CC[C@H](C(=O)NC[C@H]2CC[C@H](c3nnc(-c4nccc5ccccc45)o3)CC2)CC1
9 | 10.5 | 8.47 | 46.3 | – | – | – | Cc1cc(Nc2nc(N[C@@H](C)c3ncc(F)cn3)ncc2Cl)n[nH]1
10 | – | – | – | 17.3 (≈ 71 µM) | – | – | c1cncc(-c2ccnn2CN2CCOCC2)c1
11 | 1.47 | ≤ 4.74 | 20 | 74.5 (≈ 216 µM) | – | – | CC(=O)N1CCN(C(=O)c2ccc(-c3ccc(F)cc3)cc2F)CC1
12 | 1.5 | – | – | 0.19 (≈ 0.428 µM) | – | – | Cc1cccc(Nc2ccc(C3CCN(C(=O)c4cc5cc(F)ccc5n4C)CC3)nc2)n1
13 | 52.5 | 5.04 | 353 | 60.9 (≈ 161 µM) | – | – | COCCNC(=O)CN1CCN(c2nccn2-c2cccc(Cl)c2)CC1
14 | 2.19 | ≤ 4.74 | 48 | 23 (≈ 96.2 µM) | – | – | CCn1ncnc1-c1[nH]cnc1-c1ccccc1
15 | 0.764 | 84.1 | 258 | 18.2 (≈ 83.4 µM) | – | – | COc1cccc(-c2cccc(N)n2)c1F
16 | 9.52 | 218 | 2960 | 69.7 (≈ 164 µM) | – | – | COc1ccccc1CNC(=O)c1cnc(C2CCN(C(=O)C(C)(C)C)CC2)nc1C
17 | 0.87 | 8.62 | 200 | – | – | – | Cc1nccc(N(C)Cc2nc(-c3cccnc3)no2)n1
18 | 0.511 | 45.6 | 459 | 36.6 (≈ 118 µM) | – | – | CC(C)c1noc(-c2ccc(N(C)Cc3cccnc3)nc2)n1
19 | – | 34.7 | 485 | – | – | – | COc1cc(-c2cnc(NC3CC3)nc2-c2cccs2)nc(OC)n1
20 | 1.42 | ≤ 4.74 | 76.1 | – | – | – | CSC1(CNc2cc(C)nc(C)n2)CCOCC1

Row | MDR1-MDCK efflux ratio | intrinsic clearance, human liver microsomes [mL/min/kg] | intrinsic clearance, rat liver microsomes [mL/min/kg] | aqueous solubility [µg/mL] | fraction unbound, human plasma | fraction unbound, rat plasma | SMILES
21 | 63.1 | 12.8 | 34.7 | 46.2 (≈ 103 µM) | – | – | CC(=O)c1c(C)c2cnc(Nc3ccc(N4CCNCC4)cn3)nc2n(C2CCCC2)c1=O
22 | 0.543 | ≤ 4.74 | 21.1 | 34.8 (≈ 151 µM) | – | – | O=C(NCc1ccc(F)cc1)c1ccccn1
23 | 0.68 | 25.8 | 711 | – | – | – | O=c1c2cccnc2ncn1Cc1ccc2c(c1)CCCC2
24 | 1.33 | 56.1 | 565 | – | – | – | CCCOc1ccn2c(C(C)=O)cc(-c3ccccc3S(C)(=O)=O)c2c1
25 | 0.59 | 22.6 | 79.3 | 52.1 (≈ 134 µM) | – | – | FC(F)(F)COc1ccc(CN2CCc3c(cnn3-c3ccccc3)C2)nn1
26 | 0.732 | 10.3 | 818 | 34.1 (≈ 118 µM) | – | – | CCOCC(=O)N1CCC2(CCc3ccccc3O2)CC1
27 | 5.12 | 10 | 190 | 19.2 (≈ 54.3 µM) | – | – | Cn1nc(-c2cn(Cc3ccc(CO)cc3)nn2)c2c(Cl)cccc21
28 | 5.08 | 15.7 | 245 | 42.5 (≈ 98.2 µM) | – | – | COc1ccc(NC(=O)CN2CCC(c3cc(-c4cnc(N)nc4)cc(C)n3)CC2)cc1
29 | 0.64 | 86.3 | 862 | 44.5 (≈ 169 µM) | – | – | CN(CCc1ccccn1)c1cnc2ccccc2n1
30 | 0.65 | ≤ 4.74 | 174 | 36.7 (≈ 144 µM) | – | – | CCN(Cc1ccccc1)C(=O)c1cccnc1N
31 | 0.741 | 16.8 | 1450 | – | – | – | COc1ccccc1/C=C/CN1C[C@H]2CCCN2C[C@@H]1C
32 | 0.761 | 10.4 | 324 | 69.7 (≈ 231 µM) | – | – | CN(CC(N)=O)Cc1cc2c(cc1Br)OCO2
33 | – | 92.5 | 702 | 14.1 (≈ 34.8 µM) | – | – | Nc1ccc(Cl)c(NC2=NN(c3c(Cl)cc(Cl)cc3Cl)C(=O)C2)c1
34 | – | – | – | 29.9 (≈ 123 µM) | – | – | CN(Cc1cccc(C#N)c1)C(=O)CC(C)(C)C
35 | 2.11 | 21.4 | 233 | 28.7 (≈ 83.9 µM) | – | – | CCn1nc(Cc2ccc(OC)cc2)nc1Cc1sc(C)nc1C
36 | 0.895 | ≤ 4.74 | 453 | 36.3 (≈ 139 µM) | – | – | CC(=O)c1ccc(OCCCCN2CCCC2)cc1
37 | – | – | – | 0.7 (≈ 2.15 µM) | – | – | COc1ccc(OC)c(N/C=C2\C(=O)Oc3ccccc3C2=O)c1
38 | – | 177 | 1770 | – | – | – | Cc1c(C(=O)NCC2CCSCC2)nnn1-c1cccc2cnccc12
39 | 1.04 | ≤ 4.74 | ≤ 10.7 | 44.3 (≈ 215 µM) | – | – | O=C(Nc1nncs1)c1cccnc1
40 | 0.93 | 6.75 | 220 | – | – | – | CC(C)c1nnc(CN(C(C)C)C2CCOCC2)o1

Row | MDR1-MDCK efflux ratio | intrinsic clearance, human liver microsomes [mL/min/kg] | intrinsic clearance, rat liver microsomes [mL/min/kg] | aqueous solubility [µg/mL] | fraction unbound, human plasma | fraction unbound, rat plasma | SMILES
41 | 21 | 11.3 | 20.1 | – | – | – | CCn1c(C(=O)N(C2CC2)C2CC2)cc2c3c(ncn3C)c(Nc3cc(C)n(C)n3)nc21
42 | 113 | ≤ 4.74 | 30.1 | – | – | – | Cc1nc(-c2cccc(-c3ccc(C(=O)NC[C@@H]4CCCN4)cc3)c2)no1
43 | 0.768 | 21.9 | 264 | 37.9 (≈ 130 µM) | – | – | CCOCC(=O)NCc1cc(C2CC2)n(C2CCCC2)n1
44 | – | – | – | 0.65 (≈ 2.34 µM) | – | – | N#Cc1ccccc1OCn1nnc2ccccc2c1=O
45 | 0.408 | 66.7 | 283 | – | – | – | N#Cc1cc(Oc2ccc3c(c2)CCC3)ncn1
46 | – | 9.51 | 29.1 | 36.2 (≈ 139 µM) | – | – | CNc1nc(C2CCNCC2)nc2c1CN(C)CC2
47 | 25 | 9.8 | 330 | 32.7 (≈ 98.6 µM) | 0.104 | 0.106 | OC[C@H](Nc1cncc(-c2ccc3[nH]ncc3n2)c1)c1ccccc1
48 | 0.671 | 74 | 143 | – | – | – | CN1CCNc2nc3ccccc3nc21
49 | 0.689 | 19.2 | 388 | 39.6 (≈ 131 µM) | – | – | Cc1nn(Cc2csc(-c3cccs3)n2)c(N)c1C#N
50 | 0.607 | 33 | 204 | 34.9 (≈ 133 µM) | – | – | Cc1cnc(CNCc2cccc3c2OCO3)s1
51 | 57.9 | 16.3 | 285 | – | – | – | CC(C)N(C)S(=O)(=O)N1CCC(CNC(=O)CCCn2cccn2)CC1
52 | 0.684 | 133 | 425 | 3.6 (≈ 14.1 µM) | – | – | COCc1nc(-c2cc(F)ccc2F)c(C)s1
53 | 0.753 | – | – | 0.96 (≈ 2.29 µM) | – | – | Cc1cc(C(=O)NC2CCN(c3nc(-c4cccs4)nc4ccccc34)CC2)on1
54 | 0.305 | – | – | 0.12 (≈ 0.37 µM) | – | – | Fc1ccc(Nc2nc(N3CCCCC3)c3nccnc3n2)cc1
55 | – | 222 | 3560 | – | – | – | C[C@@H](Cn1nc2c(cc1=O)CCCCC2)NC(=O)CCc1ccccc1
56 | 0.593 | 303 | 3450 | 22.4 (≈ 62.9 µM) | – | – | Cc1cccc(-c2ncc(CNCc3ccccc3-n3cccn3)cn2)c1
57 | – | 35.8 | 614 | – | – | – | O=C(Nc1cccc2ncccc12)[C@H]1CCCN(S(=O)(=O)c2cccs2)C1
58 | – | ≤ 4.74 | ≤ 10.7 | 61 (≈ 157 µM) | – | – | CC(=O)Nc1ccc(S(=O)(=O)NC2=NCN(Cc3ccccc3)CN2)cc1
